Starred links: 1 amine or outer side, 2 acyl side, 3 side chain; linkers in the order of their positions; H or OH if unused. Positions of bridges follow the written chain, without caps; N, C: chain ends. Non-standard residues stand in square brackets, D forms with d. Residues, ends and D or L forms follow the SMILES beside them. Chains are numbered I, II in the order given. Actinocin(9to1) = Cc1c2oc3c(C)ccc(C(=O)[*:1])c3nc-2c(C(=O)[*:2])c(N)c1=O; NMeV = CN[C@H](C(=O)O)C(C)C; Sar = CNCC(=O)O
Species: Rattus norvegicus
Assay: DrugMatrix - Regimen: Daily Repeat
Assay type: toxicity, organism-based, Sprague-Dawley
Set-up: regimen Daily Repeat, gender Male, age 6-8 weeks
Settings: in vivo, iv, vehicle 100 % SALINE; for ABSOLUTE BASOPHIL / ABSOLUTE EOSINOPHIL / ABSOLUTE LYMPHOCYTE / ABSOLUTE MONOCYTE / ABSOLUTE SEGMENTED NEUTROPHIL / BASOPHIL / EOSINOPHIL / ERYTHROCYTE COUNT / HEMATOCRIT / HEMOGLOBIN / LEUKOCYTE COUNT / LYMPHOCYTE / MEAN CORPUSCULAR HEMOGLOBIN / MEAN CORPUSCULAR HEMOGLOBIN CONCENTRATION / MEAN CORPUSCULAR VOLUME / MONOCYTE / NEUTROPHIL / NUCLEATED RED BLOOD CELLS / PLATELET COUNT: tissue Blood; for ALANINE AMINOTRANSFERASE / ALBUMIN / ALKALINE PHOSPHATASE / ASPARTATE AMINOTRANSFERASE / BLOOD UREA NITROGEN / CARBON DIOXIDE / CHLORIDE / CHOLESTEROL / CREATINE PHOSPHOKINASE / CREATININE / GLUCOSE / LACTATE DEHYDROGENASE / LIPASE / PHOSPHORUS / POTASSIUM / SODIUM / TOTAL BILIRUBIN / TOTAL PROTEIN / URIC ACID: tissue Plasma
[1] = 0.006 mg/kg, 120 h, dose level Low, time 5 day
[2] = 0.06 mg/kg, 72 h, dose level High, time 3 day
[3] = 0.06 mg/kg, 120 h, dose level High, time 5 day

Cc1c2oc3c(C)ccc(C(=O)N[C@@H]4C(=O)N[C@H](C(C)C)C(=O)N5CCC[C@H]5C(=O)N(C)CC(=O)N(C)[C@@H](C(C)C)C(=O)O[C@@H]4C)c3nc-2c(C(=O)N[C@@H]2C(=O)N[C@H](C(C)C)C(=O)N3CCC[C@H]3C(=O)N(C)CC(=O)N(C)[C@@H](C(C)C)C(=O)O[C@@H]2C)c(N)c1=O [DACTINOMYCIN] (I: T[dV]P[Sar][NMeV] / II: T[dV]P[Sar][NMeV]; ester I:1-I:C, II:1-II:C; linker I:N-II:N via Actinocin(9to1))
ABSOLUTE BASOPHIL [1]: 0 CELLS/uL
ABSOLUTE EOSINOPHIL [1]: 221.33 CELLS/uL
ABSOLUTE LYMPHOCYTE [1]: 12705.67 CELLS/uL
ABSOLUTE MONOCYTE [1]: 103.33 CELLS/uL
ABSOLUTE SEGMENTED NEUTROPHIL [1]: 1369.67 CELLS/uL
BASOPHIL [1]: 0%
EOSINOPHIL [1]: 1.33%
ERYTHROCYTE COUNT [1]: 5.39 x10E6/uL
HEMATOCRIT [1]: 33.7%
HEMOGLOBIN [1]: 13.67 G/DL
LEUKOCYTE COUNT [1]: 14.4 x10E3/uL
LYMPHOCYTE [1]: 88.67%
MEAN CORPUSCULAR HEMOGLOBIN [1]: 25.37 pg
MEAN CORPUSCULAR HEMOGLOBIN CONCENTRATION [1]: 40.57 G/DL
MEAN CORPUSCULAR VOLUME [1]: 62.57 fL
MONOCYTE [1]: 0.67%
NEUTROPHIL [1]: 9.33%
NUCLEATED RED BLOOD CELLS [1]: 0 /100WBC
PLATELET COUNT [1]: 1209 x10E3/uL
ALANINE AMINOTRANSFERASE [1]: 51 u/L
ALBUMIN [1]: 4.1 G/DL
ALKALINE PHOSPHATASE [1]: 297 u/L
ASPARTATE AMINOTRANSFERASE [1]: 130.67 u/L
BLOOD UREA NITROGEN [1]: 15 mg/dL
CARBON DIOXIDE [1]: 27.33 mmol/L
CHLORIDE [1]: 102 MEQ/L
CHOLESTEROL [1]: 77 mg/dL
CREATINE PHOSPHOKINASE [1]: 1455.33 u/L
CREATININE [1]: 0.22 mg/dL
GLUCOSE [1]: 155.33 mg/dL
LACTATE DEHYDROGENASE [1]: 798.33 u/L
LIPASE [1]: 10.33 u/L
PHOSPHORUS [1]: 11.03 mg/dL
POTASSIUM [1]: 5.31 MEQ/L
SODIUM [1]: 143.1 MEQ/L
TOTAL BILIRUBIN [1]: 0.17 mg/dL
TOTAL PROTEIN [1]: 6.13 G/DL
URIC ACID [1]: 1.37 mg/dL
ABSOLUTE BASOPHIL [2]: 0 CELLS/uL
ABSOLUTE EOSINOPHIL [2]: 0 CELLS/uL
ABSOLUTE LYMPHOCYTE [2]: 13952.33 CELLS/uL
ABSOLUTE MONOCYTE [2]: 166 CELLS/uL
ABSOLUTE SEGMENTED NEUTROPHIL [2]: 748.33 CELLS/uL
BASOPHIL [2]: 0%
EOSINOPHIL [2]: 0%
ERYTHROCYTE COUNT [2]: 5.81 x10E6/uL
HEMATOCRIT [2]: 35.17%
HEMOGLOBIN [2]: 13.97 G/DL
LEUKOCYTE COUNT [2]: 14.87 x10E3/uL
LYMPHOCYTE [2]: 93.67%
MEAN CORPUSCULAR HEMOGLOBIN [2]: 24.13 pg
MEAN CORPUSCULAR HEMOGLOBIN CONCENTRATION [2]: 39.8 G/DL
MEAN CORPUSCULAR VOLUME [2]: 60.7 fL
MONOCYTE [2]: 1%
NEUTROPHIL [2]: 5.33%
NUCLEATED RED BLOOD CELLS [2]: 0 /100WBC
PLATELET COUNT [2]: 1121.67 x10E3/uL
ALANINE AMINOTRANSFERASE [2]: 41.67 u/L
ALBUMIN [2]: 4.4 G/DL
ALKALINE PHOSPHATASE [2]: 262.67 u/L
ASPARTATE AMINOTRANSFERASE [2]: 85.33 u/L
BLOOD UREA NITROGEN [2]: 15.67 mg/dL
CARBON DIOXIDE [2]: 26 mmol/L
CHLORIDE [2]: 99.67 MEQ/L
CHOLESTEROL [2]: 81.33 mg/dL
CREATINE PHOSPHOKINASE [2]: 562.67 u/L
CREATININE [2]: 0.16 mg/dL
GLUCOSE [2]: 154.33 mg/dL
LACTATE DEHYDROGENASE [2]: 357.33 u/L
LIPASE [2]: 10.33 u/L
PHOSPHORUS [2]: 11.93 mg/dL
POTASSIUM [2]: 6.38 MEQ/L
SODIUM [2]: 140.17 MEQ/L
TOTAL BILIRUBIN [2]: 0.2 mg/dL
TOTAL PROTEIN [2]: 6.13 G/DL
URIC ACID [2]: 1.6 mg/dL
ABSOLUTE BASOPHIL [3]: 0 CELLS/uL
ABSOLUTE EOSINOPHIL [3]: 0 CELLS/uL
ABSOLUTE LYMPHOCYTE [3]: 13429.67 CELLS/uL
ABSOLUTE MONOCYTE [3]: 267.67 CELLS/uL
ABSOLUTE SEGMENTED NEUTROPHIL [3]: 1069.33 CELLS/uL
BASOPHIL [3]: 0%
EOSINOPHIL [3]: 0%
ERYTHROCYTE COUNT [3]: 5.63 x10E6/uL
HEMATOCRIT [3]: 35%
HEMOGLOBIN [3]: 13.77 G/DL
LEUKOCYTE COUNT [3]: 14.77 x10E3/uL
LYMPHOCYTE [3]: 90.67%
MEAN CORPUSCULAR HEMOGLOBIN [3]: 24.5 pg
MEAN CORPUSCULAR HEMOGLOBIN CONCENTRATION [3]: 39.37 G/DL
MEAN CORPUSCULAR VOLUME [3]: 62.17 fL
MONOCYTE [3]: 1.67%
NEUTROPHIL [3]: 7.67%
NUCLEATED RED BLOOD CELLS [3]: 0 /100WBC
PLATELET COUNT [3]: 1163.67 x10E3/uL
ALANINE AMINOTRANSFERASE [3]: 41 u/L
ALBUMIN [3]: 4.2 G/DL
ALKALINE PHOSPHATASE [3]: 279.33 u/L
ASPARTATE AMINOTRANSFERASE [3]: 79.33 u/L
BLOOD UREA NITROGEN [3]: 19.33 mg/dL
CARBON DIOXIDE [3]: 29 mmol/L
CHLORIDE [3]: 99.67 MEQ/L
CHOLESTEROL [3]: 62.33 mg/dL
CREATINE PHOSPHOKINASE [3]: 327.33 u/L
CREATININE [3]: 0.23 mg/dL
GLUCOSE [3]: 148.67 mg/dL
LACTATE DEHYDROGENASE [3]: 429.67 u/L
LIPASE [3]: 10 u/L
PHOSPHORUS [3]: 12.3 mg/dL
POTASSIUM [3]: 6.67 MEQ/L
SODIUM [3]: 140.87 MEQ/L
TOTAL BILIRUBIN [3]: 0.23 mg/dL
TOTAL PROTEIN [3]: 6.2 G/DL
URIC ACID [3]: 1.7 mg/dL
